# Test results published in patent US8889874B2, “Imidazolone-chalcone derivatives as potential anticancer agent and process for the preparation thereof” (Council of Scientific and Industrial Research, priority 2010, dated 2014).
# Like-named read-outs stand apart in the source and are kept apart here.
# How the values were obtained:
# Type in all cases: cell-based, human
# [1] = test system: A549/ATCC (non-small cell lung); test: NCI anticancer screen, SRB assay, 48 h; settings: Homo sapiens
# In short: (§1)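 Sulforhodamine B protein assay read cell growth after 48 h of continuous compound exposure. Dose-response curves per cell line used at least five 10-fold-diluted concentrations, within a panel of fifty-three human lines from nine tumour types.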
# CAKI-1 (renal) = test: NCI anticancer screen, SRB assay, 48 h; settings: Homo sapiens
# In short: as §1
# HCC-2998 (colon) = test: NCI anticancer screen, SRB assay, 48 h; settings: Homo sapiens
# In short: as §1
# HCT-116 (colon) = test: NCI anticancer screen, SRB assay, 48 h; settings: Homo sapiens
# In short: as §1
# HCT-15 (colon) = test: NCI anticancer screen, SRB assay, 48 h; settings: Homo sapiens
# In short: as §1
# MDA-MB-435 (melanoma) = test: NCI anticancer screen, SRB assay, 48 h; settings: Homo sapiens
# In short: as §1
# [2] = test system: NCI-H226 (non-small cell lung); test: NCI anticancer screen, SRB assay, 48 h; settings: Homo sapiens
# In short: as §1
# NCI/ADR-RES (ovarian) = test: NCI anticancer screen, SRB assay, 48 h; settings: Homo sapiens, NCI/ADR-RES
# In short: as §1
# OVCAR-4 (ovarian) = test: NCI anticancer screen, SRB assay, 48 h; settings: Homo sapiens
# In short: as §1
# [3] = test system: RPMI-8226 (leukemia cell line); test: NCI anticancer screen, SRB assay, 48 h; settings: Homo sapiens
# In short: as §1
# SK-MEL-5 (melanoma) = test: NCI anticancer screen, SRB assay, 48 h; settings: Homo sapiens
# In short: as §1
# SN12C (renal) = test: NCI anticancer screen, SRB assay, 48 h; settings: Homo sapiens, SN12C
# In short: as §1
# SNB-19 (CNS) = test: NCI anticancer screen, SRB assay, 48 h; settings: Homo sapiens
# In short: as §1
# TD-47D (breast) = test: NCI anticancer screen, SRB assay, 48 h; settings: Homo sapiens
# In short: as §1
# TK-10 (renal) = test: NCI anticancer screen, SRB assay, 48 h; settings: Homo sapiens
# In short: as §1
# U251 (CNS) = test: NCI anticancer screen, SRB assay, 48 h; settings: Homo sapiens
# In short: as §1
# UACC-257 (melanoma) = test: NCI anticancer screen, SRB assay, 48 h; settings: Homo sapiens
# In short: as §1
# Breast cancer cell lines = test: NCI anticancer screen, SRB assay, panel summary; settings: Homo sapiens
# In short: as §1
# CNS cancer cell lines = test: NCI anticancer screen, SRB assay, panel summary; settings: for GI50: Homo sapiens
# In short: as §1
# Colon cancer cell lines = test: NCI anticancer screen, SRB assay, panel summary; settings: for GI50: Homo sapiens
# In short: as §1
# [4] = test system: Leukemia cancer cell lines; test: NCI anticancer screen, SRB assay, panel summary; settings: Homo sapiens
# In short: as §1
# [5] = test system: Melanoma cancer cell lines; test: NCI anticancer screen, SRB assay, panel summary; settings: for GI50: Homo sapiens
# In short: as §1
# [6] = test system: Non-small cell lung cancer cell lines; test: NCI anticancer screen, SRB assay, panel summary; settings: Homo sapiens
# In short: as §1
# [7] = test system: Ovarian cancer cell lines; test: NCI anticancer screen, SRB assay, panel summary; settings: Homo sapiens
# In short: as §1
# [8] = test system: Prostate cancer cell lines; test: NCI anticancer screen, SRB assay, panel summary
# In short: as §1
# Renal cancer cell lines = test: NCI anticancer screen, SRB assay, panel summary; settings: Homo sapiens
# In short: as §1
# [9] = 48 h exposure, SRB, read-out: GI50
# [10] = read-out: pGI50 (-log of molar concentration causing 50% inhibition of net cell growth) (converted)
smiles,measurement,setting,value
"COc1ccc(-c2cn(-c3cccc(C(=O)/C=C/c4ccc(O)c(OC)c4)c3)c(=O)[nH]2)cc1 [3b, 1-3-[(E)-3-(4-hydroxy-3-methoxyphenyl)-2-propenoyl]phenyl-4-(4-methoxyphenyl)-2,3-dihydro-1H-2-imidazolone]",GI50,[1]; [9],4.14 µM
same,GI50,[1]; [10],4.17 µM
same,GI50,CAKI-1 (renal); [9],4.99 µM
same,GI50,CAKI-1 (renal); [10],5.01 µM
same,GI50,HCC-2998 (colon); [9],2.32 µM
same,GI50,HCC-2998 (colon); [10],2.34 µM
same,GI50,HCT-116 (colon); [9],1.93 µM
same,GI50,HCT-116 (colon); [10],1.95 µM
same,GI50,HCT-15 (colon); [9],3.15 µM
same,GI50,HCT-15 (colon); [10],3.16 µM
same,GI50,MDA-MB-435 (melanoma); [9],3.35 µM
same,GI50,MDA-MB-435 (melanoma); [10],3.39 µM
same,GI50,[2]; [9],4.1 µM
same,GI50,[2]; [10],4.07 µM
same,GI50,"NCI/ADR-RES (ovarian); NCl/ADR-RES, 48 h exposure, SRB, read-out: GI50",2.56 µM
same,GI50,NCI/ADR-RES (ovarian); [10],2.57 µM
same,GI50,OVCAR-4 (ovarian); [9],6.08 µM
same,GI50,OVCAR-4 (ovarian); [10],6.03 µM
same,GI50,[3]; [9],1.35 µM
same,GI50,[3]; [10],1.35 µM
same,GI50,SK-MEL-5 (melanoma); [9],2.63 µM
same,GI50,SK-MEL-5 (melanoma); [10],2.63 µM
same,GI50,"SN12C (renal); SN 12C, read-out: pGI50 (-log of molar concentration causing 50% inhibition of net cell growth) (converted)",4.07 µM
same,GI50,SN12C (renal); [9],4.11 µM
same,GI50,SNB-19 (CNS); [9],5.84 µM
same,GI50,SNB-19 (CNS); [10],5.89 µM
same,GI50,TD-47D (breast); [9],3.6 µM
same,GI50,TD-47D (breast); [10],3.63 µM
same,GI50,TK-10 (renal); [9],6.08 µM
same,GI50,TK-10 (renal); [10],6.03 µM
same,GI50,"U251 (CNS); U-251, 48 h exposure, SRB, read-out: GI50",3.45 µM
same,GI50,"U251 (CNS); U-251, read-out: pGI50 (-log of molar concentration causing 50% inhibition of net cell growth) (converted)",3.47 µM
same,GI50,UACC-257 (melanoma); [9],13.3 µM
same,GI50,UACC-257 (melanoma); [10],13.2 µM
same,GI50,"Breast cancer cell lines; Breast panel, log of concentration in mol/L causing 50% inhibition of net cell growth, read-out: mean graph midpoint (MG_MID) of Log10 GI50 (converted)",4.17 µM
same,LC50,"Breast cancer cell lines; Breast panel, log of concentration leading to 50% net cell death, read-out: mean graph midpoint (MG_MID) of Log10 LC50 (converted)",100 µM
same,GI50,"Breast cancer cell lines; five breast cancer cell lines, exposure at least 48 hrs, read-out: GI50, range over the panel",3.18 to 5.25 µM
same,mean graph midpoint (MG_MID) of Log10 LC50,"CNS cancer cell lines; CNS panel, log of concentration leading to 50% net cell death",4.06
same,GI50,"CNS cancer cell lines; CNS panel, log of concentration in mol/L causing 50% inhibition of net cell growth, read-out: mean graph midpoint (MG_MID) of Log10 GI50 (converted)",4.68 µM
same,GI50,"CNS cancer cell lines; six CNS cancer cell lines, exposure at least 48 hrs, read-out: GI50, range over the panel",2.25 to 13.9 µM
same,mean graph midpoint (MG_MID) of Log10 LC50,"Colon cancer cell lines; Colon panel, log of concentration leading to 50% net cell death",4.33
same,GI50,"Colon cancer cell lines; Colon panel, log of concentration in mol/L causing 50% inhibition of net cell growth, read-out: mean graph midpoint (MG_MID) of Log10 GI50 (converted)",2.88 µM
same,GI50,"Colon cancer cell lines; seven colon cancer cell lines, exposure at least 48 hrs, read-out: GI50, range over the panel",1.77 to 6.61 µM
same,GI50,"[4]; Leukemia panel, log of concentration in mol/L causing 50% inhibition of net cell growth, read-out: mean graph midpoint (MG_MID) of Log10 GI50 (converted)",1.78 µM
same,LC50,"[4]; Leukemia panel, log of concentration leading to 50% net cell death, read-out: mean graph midpoint (MG_MID) of Log10 LC50 (converted)",38 µM
same,GI50,"[4]; two leukemia cancer cell lines (RPMI-8226 and K-562), exposure at least 48 hrs, read-out: GI50, range over the panel",1.35 to 2.35 µM
same,GI50,"[5]; Melanoma panel, log of concentration in mol/L causing 50% inhibition of net cell growth, read-out: mean graph midpoint (MG_MID) of Log10 GI50 (converted)",4.07 µM
same,GI50,"[5]; nine melanoma cancer cell lines, exposure at least 48 hrs, read-out: GI50, range over the panel",2.03 to 13.3 µM
same,mean graph midpoint (MG_MID) of Log10 LC50,"[5]; Melanoma panel, log of concentration leading to 50% net cell death",4.13
same,GI50,"[6]; Non-small cell lung panel, log of concentration in mol/L causing 50% inhibition of net cell growth, read-out: mean graph midpoint (MG_MID) of Log10 GI50 (converted)",4.68 µM
same,LC50,"[6]; Non-small cell lung panel, log of concentration leading to 50% net cell death, read-out: mean graph midpoint (MG_MID) of Log10 LC50 (converted)",≥ 100 µM
same,GI50,"[6]; nine non-small cell lung cancer cell lines, exposure at least 48 hrs, read-out: GI50, range over the panel",2.85 to 13.4 µM
same,GI50,"[7]; Ovarian panel, log of concentration in mol/L causing 50% inhibition of net cell growth, read-out: mean graph midpoint (MG_MID) of Log10 GI50 (converted)",3.89 µM
same,LC50,"[7]; Ovarian panel, log of concentration leading to 50% net cell death, read-out: mean graph midpoint (MG_MID) of Log10 LC50 (converted)",100 µM
same,GI50,"[7]; six ovarian cancer cell lines, exposure at least 48 hrs, read-out: GI50, range over the panel",2.56 to 6.08 µM
same,GI50,"[8]; Homo sapiens, log of concentration in mol/L causing 50% inhibition of net cell growth, read-out: mean graph midpoint (MG_MID) of Log10 GI50 (converted)",3.02 µM
same,LC50,"[8]; Homo sapiens, log of concentration leading to 50% net cell death, read-out: mean graph midpoint (MG_MID) of Log10 LC50 (converted)",≥ 100 µM
same,mean graph midpoint (MG_MID) of Log10 TGI,[8]; log of concentration resulting in total inhibition of net cell growth,4.80
same,GI50,"Renal cancer cell lines; Renal panel, log of concentration in mol/L causing 50% inhibition of net cell growth, read-out: mean graph midpoint (MG_MID) of Log10 GI50 (converted)",4.68 µM
same,LC50,"Renal cancer cell lines; Renal panel, log of concentration leading to 50% net cell death, read-out: mean graph midpoint (MG_MID) of Log10 LC50 (converted)",95.5 µM
same,GI50,"Renal cancer cell lines; eight renal cancer cell lines, exposure at least 48 hrs, read-out: GI50, range over the panel",3.4 to 6.08 µM
